Results as given in patent US12310975B2, “Modulators of BCL6 proteolysis and associated methods of use” (Arvinas Operations, Inc., priority 2019, dated 2025).

Tests used:
BCL6 [1] = target: T1, BCL6 (Homo sapiens (Human), UniProt P41182); assay: BCL6 TR-FRET assay (BCL6-Avitag-Biotin / BCoR-Cy5 peptide); type: binding; details: read-out: IC50
Procedure, shortened: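 TR-FRET displacement assay: biotinylated His-SUMO-BCL6-Avitag (2 nM) pre-incubated 30 min at room temperature with compound (12-point 3-fold titration), then BCoR-Cy5 peptide (100 nM) and Eu-streptavidin (2 nM) added. Buffer: 50 mM HEPES pH 7.5, 125 mM NaCl, 0.01% Triton X, glutathione or DTT, 0.03% BSA. Read after 2 h.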

BCL6 [2] = target: T1, BCL6; assay: Immunofluorescence high content imaging of BCL6 degradation in T47D cells; type: cell-based; details: T47D
Procedure, shortened: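 Following a 3-day incubation with serially diluted bifunctional compounds (final top 0.1 or 1 μM), T47D cells were PFA-fixed and immunostained for BCL6. Nuclear BCL6 signal was captured on a high-content imager.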

IC50 (BCL6 [1]) [nM]	Dmax (BCL6 [2]) [%]	Structure (SMILES)
10 to 50	< 50	CNC(=O)COc1cc2cc(Nc3nc(N(C)C)ncc3Cl)ccc2n(CCOc2ccc3c(c2)C(=O)N(C2CCC(=O)NC2=O)C3=O)c1=O (stereo not shown) [compound 470, 2-[(6-{[5-chloro-2-(dimethylamino)pyrimidin-4-yl]amino}-1-(2-{[2-(2,6-dioxopiperidin-3-yl)-1,3-dioxo-2,3-dihydro-1H-isoindol-5-yl]oxy}ethyl)-2-oxo-1,2-dihydroquinolin-3-yl)oxy]-N-methylacetamide]
10 to 50	< 50	CNC(=O)COc1cc2cc(Nc3nc(N4CCC(O[C@H]5C[C@H](COc6cccc7c6C(=O)N(C6CCC(=O)NC6=O)C7=O)N(C)C5)CC4)ncc3Cl)ccc2n(C(C)C)c1=O (stereo partly drawn) [compound 471, 2-[(6-{[5-chloro-2-(4-{[(3S,5R)-5-({[2-(2,6-dioxopiperidin-3-yl)-1,3-dioxo-2,3-dihydro-1H-isoindol-4-yl]oxy}methyl)-1-methylpyrrolidin-3-yl]oxy}piperidin-1-yl)pyrimidin-4-yl]amino}-2-oxo-1-(propan-2-yl)-1,2-dihydroquinolin-3-yl)oxy]-N-methylacetamide]
< 10	50 to 70	CNC(=O)COc1cc2cc(Nc3nc(N4CCN(CC5CCN(c6cc(OC)cc(C(=O)NC7CCC(=O)NC7=O)c6F)CC5)CC4)ncc3Cl)ccc2n(C(C)C)c1=O (stereo not shown) [compound 473, 3-[4-({4-[5-chloro-4-({3-[(methylcarbamoyl)methoxy]-2-oxo-1-(propan-2-yl)-1,2-dihydroquinolin-6-yl}amino)pyrimidin-2-yl]piperazin-1-yl}methyl)piperidin-1-yl]-N-(2,6-dioxopiperidin-3-yl)-2-fluoro-5-methoxybenzamide]
50 to 100	< 50	CNC(=O)COc1cc2cc(Nc3nc(N4CCOCC4)ncc3Cl)ccc2n(CCCOc2ccc3c(c2)C(=O)N(C2CCC(=O)NC2=O)C3=O)c1=O (stereo not shown) [compound 474, 2-[(6-{[5-chloro-2-(morpholin-4-yl)pyrimidin-4-yl]amino}-1-(3-{[2-(2,6-dioxopiperidin-3-yl)-1,3-dioxo-2,3-dihydro-1H-isoindol-5-yl]oxy}propyl)-2-oxo-1,2-dihydroquinolin-3-yl)oxy]-N-methylacetamide]
≥ 100	≥ 70	CNC(=O)COc1cc2cc(Nc3nc(N4CCOCC4)ncc3Cl)ccc2n(CCOc2ccc3c(c2)C(=O)N(C2CCC(=O)NC2=O)C3=O)c1=O (stereo not shown) [compound 475, 2-[(6-{[5-chloro-2-(morpholin-4-yl)pyrimidin-4-yl]amino}-1-(2-{[2-(2,6-dioxopiperidin-3-yl)-1,3-dioxo-2,3-dihydro-1H-isoindol-5-yl]oxy}ethyl)-2-oxo-1,2-dihydroquinolin-3-yl)oxy]-N-methylacetamide]
10 to 50	< 50	CNC(=O)COc1cc2cc(Nc3nc(N4CCC(O[C@H]5C[C@@H](COc6cccc7c6C(=O)N(C6CCC(=O)NC6=O)C7=O)N(C)C5)CC4)ncc3Cl)ccc2n(C(C)C)c1=O (stereo partly drawn) [compound 476, 2-[(6-{[5-chloro-2-(4-{[(3S,5S)-5-({[2-(2,6-dioxopiperidin-3-yl)-1,3-dioxo-2,3-dihydro-1H-isoindol-4-yl]oxy}methyl)-1-methylpyrrolidin-3-yl]oxy}piperidin-1-yl)pyrimidin-4-yl]amino}-2-oxo-1-(propan-2-yl)-1,2-dihydroquinolin-3-yl)oxy]-N-methylacetamide]
10 to 50	< 50	CNC(=O)COc1cc2cc(Nc3nc(N4CCC(O[C@H]5C[C@@H](Oc6cccc7c6C(=O)N(C6CCC(=O)NC6=O)C7=O)CN(C)C5)CC4)ncc3Cl)ccc2n(C(C)C)c1=O (stereo partly drawn) [compound 477, 2-[(6-{[5-chloro-2-(4-{[(3S,5R)-5-{[2-(2,6-dioxopiperidin-3-yl)-1,3-dioxo-2,3-dihydro-1H-isoindol-4-yl]oxy}-1-methylpiperidin-3-yl]oxy}piperidin-1-yl)pyrimidin-4-yl]amino}-2-oxo-1-(propan-2-yl)-1,2-dihydroquinolin-3-yl)oxy]-N-methylacetamide]
10 to 50	< 50	CNC(=O)COc1cc2cc(Nc3nc(N4CCC(C5(N6CCC(c7cc(OC)cc(C(=O)NC8CCC(=O)NC8=O)c7F)CC6)CC5)CC4)ncc3Cl)ccc2n(C)c1=O (stereo not shown) [compound 480, 3-[1-(1-{1-[5-chloro-4-({1-methyl-3-[(methylcarbamoyl)methoxy]-2-oxo-1,2-dihydroquinolin-6-yl}amino)pyrimidin-2-yl]piperidin-4-yl}cyclopropyl)piperidin-4-yl]-N-(2,6-dioxopiperidin-3-yl)-2-fluoro-5-methoxybenzamide]
< 10	≥ 70	CNC(=O)COc1cc2cc(Nc3nc(N4CCN(C(C)(C)C5CCN(c6c(OC)ccc(C(=O)NC7CCC(=O)NC7=O)c6F)CC5)CC4)ncc3Cl)ccc2n(C)c1=O (stereo not shown) [compound 481, 3-[4-(2-{4-[5-chloro-4-({1-methyl-3-[(methylcarbamoyl)methoxy]-2-oxo-1,2-dihydroquinolin-6-yl}amino)pyrimidin-2-yl]piperazin-1-yl}propan-2-yl)piperidin-1-yl]-N-(2,6-dioxopiperidin-3-yl)-2-fluoro-4-methoxybenzamide]
< 10	50 to 70	CNC(=O)COc1cc2cc(Nc3nc(N4CCC5(CC4)CC(CN4CCN(c6ccc7c(c6)C(=O)N(C6CCC(=O)NC6=O)C7=O)CC4)C5)ncc3Cl)ccc2n(C(C)C)c1=O (stereo not shown) [compound 483, 2-{[6-({5-chloro-2-[2-({4-[2-(2,6-dioxopiperidin-3-yl)-1,3-dioxo-2,3-dihydro-1H-isoindol-5-yl]piperazin-1-yl}methyl)-7-azaspiro[3.5]nonan-7-yl]pyrimidin-4-yl}amino)-2-oxo-1-(propan-2-yl)-1,2-dihydroquinolin-3-yl]oxy}-N-methylacetamide]
< 10	50 to 70	CNC(=O)COc1cc2cc(Nc3nc(N4CCC5(CC4)CC(CN4CCN(c6cccc7c6C(=O)N(C6CCC(=O)NC6=O)C7=O)CC4)C5)ncc3Cl)ccc2n(C(C)C)c1=O (stereo not shown) [compound 484, 2-{[6-({5-chloro-2-[2-({4-[2-(2,6-dioxopiperidin-3-yl)-1,3-dioxo-2,3-dihydro-1H-isoindol-4-yl]piperazin-1-yl}methyl)-7-azaspiro[3.5]nonan-7-yl]pyrimidin-4-yl}amino)-2-oxo-1-(propan-2-yl)-1,2-dihydroquinolin-3-yl]oxy}-N-methylacetamide]
< 10	50 to 70	CNC(=O)COc1cc2cc(Nc3nc(N4CCN(CC5CCN(c6cccc7c6C(=O)N(C6CCC(=O)NC6=O)C7=O)CC5)CC4)ncc3Cl)ccc2n(CC2COC2)c1=O (stereo not shown) [compound 485, 2-{[6-({5-chloro-2-[4-({1-[2-(2,6-dioxopiperidin-3-yl)-1,3-dioxo-2,3-dihydro-1H-isoindol-4-yl]piperidin-4-yl}methyl)piperazin-1-yl]pyrimidin-4-yl}amino)-1-[(oxetan-3-yl)methyl]-2-oxo-1,2-dihydroquinolin-3-yl]oxy}-N-methylacetamide]
< 10	50 to 70	CNC(=O)COc1cc2cc(Nc3nc(N4CCC(C5(N6CCC(c7ccc8c(c7)C(=O)N(C7CCC(=O)NC7=O)C8=O)CC6)CC5)CC4)ncc3Cl)ccc2n(C(C)C)c1=O (stereo not shown) [compound 488, 2-{[6-({5-chloro-2-[4-(1-{4-[2-(2,6-dioxopiperidin-3-yl)-1,3-dioxo-2,3-dihydro-1H-isoindol-5-yl]piperidin-1-yl}cyclopropyl)piperidin-1-yl]pyrimidin-4-yl}amino)-2-oxo-1-(propan-2-yl)-1,2-dihydroquinolin-3-yl]oxy}-N-methylacetamide]
< 10	50 to 70	CNC(=O)COc1cc2cc(Nc3nc(N4CCC(CN5CCC6(CC5)CCN(c5ccc7c(c5)C(=O)N(C5CCC(=O)NC5=O)C7=O)C6)CC4)ncc3Cl)ccc2n(C(C)C)c1=O (stereo not shown) [compound 489, 2-{[6-({5-chloro-2-[4-({2-[2-(2,6-dioxopiperidin-3-yl)-1,3-dioxo-2,3-dihydro-1H-isoindol-5-yl]-2,8-diazaspiro[4.5]decan-8-yl}methyl)piperidin-1-yl]pyrimidin-4-yl}amino)-2-oxo-1-(propan-2-yl)-1,2-dihydroquinolin-3-yl]oxy}-N-methylacetamide]
< 10	50 to 70	CNC(=O)COc1cc2cc(Nc3nc(N4CCC5(CCN(CC6CCN(c7ccc8c(c7)C(=O)N(C7CCC(=O)NC7=O)C8=O)CC6)CC5)C4)ncc3Cl)ccc2n(C(C)C)c1=O (stereo not shown) [compound 490, 2-{[6-({5-chloro-2-[8-({1-[2-(2,6-dioxopiperidin-3-yl)-1,3-dioxo-2,3-dihydro-1H-isoindol-5-yl]piperidin-4-yl}methyl)-2,8-diazaspiro[4.5]decan-2-yl]pyrimidin-4-yl}amino)-2-oxo-1-(propan-2-yl)-1,2-dihydroquinolin-3-yl]oxy}-N-methylacetamide]
≥ 100	≥ 70	CNC(=O)COc1cc2cc(Nc3nc(N4CCC[C@H](COc5cccc6c5C(=O)N(C5CCC(=O)NC5=O)C6=O)C4)ncc3Cl)ccc2n(CC2COC2)c1=O (stereo partly drawn) [compound 491, 2-{[6-({5-chloro-2-[(3S)-3-({[2-(2,6-dioxopiperidin-3-yl)-1,3-dioxo-2,3-dihydro-1H-isoindol-4-yl]oxy}methyl)piperidin-1-yl]pyrimidin-4-yl}amino)-1-[(oxetan-3-yl)methyl]-2-oxo-1,2-dihydroquinolin-3-yl]oxy}-N-methylacetamide]
50 to 100	50 to 70	Cn1c(=O)n(CCC(C)(C)O)c2cc(Nc3nc(N4CCC(CN5CCN(c6cccc7c6C(=O)N(C6CCC(=O)NC6=O)C7=O)CC5)CC4)ncc3Cl)ccc21 (stereo not shown) [compound 492, 4-(4-{[1-(5-chloro-4-{[3-(3-hydroxy-3-methylbutyl)-1-methyl-2-oxo-2,3-dihydro-1H-1,3-benzodiazol-5-yl]amino}pyrimidin-2-yl)piperidin-4-yl]methyl}piperazin-1-yl)-2-(2,6-dioxopiperidin-3-yl)-2,3-dihydro-1H-isoindole-1,3-dione]
